Data reported in patent publication US9169217B2, “Arylalkyl esters of 4-amino-6-(substituted phenyl)-picolinates and 6-amino-2-(substituted phenyl)-pyrimidinecarboxylates and their use as selective herbicides for crops” (Dow AgroSciences LLC, priority 2011, dated 2015).

What was measured:
[1] = tested on: Echinochloa crus-galli (L.) P.BEAUV. (barnyardgrass); test: In-water applied herbicidal activity in transplanted paddy rice (Example 17); assay type: in vivo; details: Echinochloa crus-galli, 504 h, rice cropping systems, in-water applied (paddy), 21 DAA, may represent multiple trials, read-out: Visual Injury (%) ECHCG; for pest or weed control at 35 g/ha: 35 g ae/ha; for pest or weed control at 17.5 g/ha: 17.5 g ae/ha
Experimental: (§1) Weed seeds or nutlets of the desired test plant species were planted in puddled soil (mud) prepared by mixing a non-sterilized mineral soil (28 percent silt, 18 percent clay, and 54 percent sand, with a pH of about 7.3 to 7.8 and an organic matter content of about 1.0 percent) and water at a ratio of 100 kilograms (kg) of soil to 19 liters (L) of water. The prepared mud was dispensed in 250 mL aliquots into 480 mL non-perforated plastic pots with a surface area of 91.6 cm^2 leaving a headspace of 3 cm in each pot. Rice seeds were planted in Sun Gro MetroMix 306 planting mixture, which typically has a pH of 6.0 to 6.8 and an organic matter content of about 30 percent, in plastic plug trays. Seedlings at the second or third leaf stage of growth were transplanted into 650 mL of mud contained in 960 mL non-perforated plastic pots with a surface area of 91.6 cm^2 four days prior to herbicide application. The paddy was created by filling the 3 cm headspace of the pots with water. When required to ensure good germination and healthy plants, a fungicide treatment and/or other chemical or physical treatment was applied. The plants were grown for 4-14 d in a greenhouse with an approximate 14-h photoperiod which was maintained at about 29° C. during the day and 26° C. during the night. Nutrients were added as Osmocote (17:6:10, Nitrogen:Phosphorus:Potassium (N:P:K)+minor nutrients) at 2 grams (g) per cup. Water was added on a regular basis to maintain the paddy flood, and supplemental lighting was provided with overhead metal halide 1000-Watt lamps as necessary. The plants were employed for testing when they reached the second or third true leaf stage.
(§2) Treatments consisted of esters of compounds 1-4, 6-33, 35-39, 41 and 42 and A-G. Compound A is methyl 4-amino-3-chloro-6-(4-chloro-3-ethoxy-2-fluorophenyl)-5-fluoropicolinate; compound B is methyl 4-amino-3-chloro-6-(4-cyclopropylphenyl)-5-fluoropicolinate; compound C is methyl 4-amino-3-chloro-6-(2,4-dichloro-3-methoxyphenyl)picolinate; compound D is methyl 6-amino-2-(4-chloro-2-fluoro-3-methoxyphenyl)-5-vinylpyrimidine-4-carboxylate; compound E is methyl 4-amino-3-chloro-6-(4-chloro-2-fluoro-3-methoxyphenyl)-5-fluoropicolinate; compound F is methyl 6-amino-2-(4-chloro-2-fluoro-3-methoxyphenyl)-5-methoxypyrimidine-4-carboxylate; and compound G is methyl 4-amino-3-chloro-6-(4-chloro-2-fluoro-3-methoxyphenyl)picolinate. Weighed amounts of technical grade compounds were placed in individual 120 mL glass vials and were dissolved in 20 mL of acetone to obtain concentrated stock solutions. […] The concentrated stock solutions obtained were diluted with 20 mL of an aqueous mixture containing 2.5% Agri-dex crop oil concentrate (v/v). The final application solutions contained 1.25% (v/v) Agri-dex crop oil concentrate. Generally, multiple concentrations were tested utilizing the same stock solution. Applications were made by injecting an appropriate amount of the application solution into the aqueous layer of the paddy. Control plants were treated in the same manner with the solvent blank.
(§3) The treated plants and control plants were placed in a greenhouse as described above and water was added as needed to maintain a paddy flood. After 3 weeks the condition of the test plants, compared with that of the untreated plants, was determined visually and scored on a scale of 0 to 100 percent where 0 corresponds to no injury and 100 corresponds to complete kill.
(§4) By applying the well-accepted probit analysis as described by J. Berkson in Journal of the American Statistical […], 48, 565 (1953) and by D. Finney in “Probit Analysis” Cambridge University Press (1952), the data gathered can be used to calculate GR50 and GR80 values, which are defined as growth reduction factors that correspond to the effective dose of herbicide required to kill or control 50 percent or 80 percent, respectively, of a target plant.

[2] = tested on: Cyperus difformis L. (small-flower flatsedge); test: Postemergence foliar-applied herbicidal activity in direct seeded rice (Example 16); assay type: in vivo; details: post-emergence, 504 h, rice cropping systems, foliar-applied, 8.75 g ae/ha, 21 DAA, may represent multiple trials, read-out: Visual Injury (%) CYPDI
From the text: (§5) Seeds or nutlets of the desired test plant species were planted in a soil matrix prepared by mixing a loam soil (43 percent silt, 19 percent clay, and 38 percent sand, with a pH of about 8.1 and an organic matter content of about 1.5 percent) and river sand in an 80 to 20 ratio. The soil matrix was contained in plastic pots with a surface area of 139.7 cm^2. When required to ensure good germination and healthy plants, a fungicide treatment and/or other chemical or physical treatment was applied. The plants were grown for 10-17 d in a greenhouse with an approximate 14-h photoperiod which was maintained at about 29° C. during the day and 26° C. during the night. Nutrients and water were added on a regular basis and supplemental lighting was provided with overhead metal halide 1000-Watt lamps as necessary. The plants were employed for testing when they reached the second or third true leaf stage.
(§6) Treatments consisted of esters of compounds 1-4, 6-8, 10, 11, 13-16, 20-31, 35, 38, 41 and 42 and A-E. Compound A is methyl 4-amino-3-chloro-6-(4-chloro-3-ethoxy-2-fluorophenyl)-5-fluoropicolinate; compound B is methyl 4-amino-3-chloro-6-(4-cyclopropylphenyl)-5-fluoropicolinate; compound C is methyl 4-amino-3-chloro-6-(2,4-dichloro-3-methoxyphenyl)picolinate; compound D is methyl 6-amino-2-(4-chloro-2-fluoro-3-methoxyphenyl)-5-vinylpyrimidine-4-carboxylate; and compound E is methyl 4-amino-3-chloro-6-(4-chloro-2-fluoro-3-methoxyphenyl)-5-fluoropicolinate. Weighed amounts of technical grade compounds were placed in 25 mL glass vials and dissolved in a volume of 97:3 v/v acetone-DMSO to obtain 12× stock solutions. […] The concentrated stock solutions were added to the spray solutions so that the final acetone and DMSO concentrations were 16.2% and 0.5%, respectively. Spray solutions were diluted to the appropriate final concentrations with the addition of 10 mL of an aqueous mixture of 1.5% (v/v) Agri-dex crop oil concentrate. Generally, multiple concentrations of spray solutions were formulated and tested utilizing the same stock solution. The final spray solutions contained 1.25% (v/v) Agri-dex crop oil concentrate. Compound requirements are based upon a 12 mL application volume at a rate of 187 L/ha. Spray solutions were applied to the plant material with an overhead Mandel track sprayer equipped with 8002E nozzles calibrated to deliver 187 L/ha over an application area of 0.503 square meters (m^2) at a spray height of 18 inches (43 cm) above average plant canopy height. Control plants were sprayed in the same manner with the solvent blank.
as §3, with “watered by sub-irrigation” for “water was added as needed”, “prevent wash-off of the test compounds.” for “maintain a paddy flood.”, “weeks,” for “weeks”
as §4

[3] = tested on: Scirpus juncoides ROXB. (Japanese bulrush); test: as above; assay type: in vivo; details: Schoenoplectiella juncoides, post-emergence, 504 h; rice cropping systems, foliar-applied, 8.75 g ae/ha, 21 DAA; may represent multiple trials; read-out: Visual Injury (%) SCPJU
From the text: as §5, §6
as §3, with “watered by sub-irrigation” for “water was added as needed”, “prevent wash-off of the test compounds.” for “maintain a paddy flood.”, “weeks,” for “weeks”
as §4

[4] = tested on: Scirpus juncoides ROXB. (Japanese bulrush); test: In-water applied herbicidal activity in transplanted paddy rice (Example 17); assay type: in vivo; details: Schoenoplectiella juncoides, 504 h; rice cropping systems, in-water applied (paddy), 17.5 g ae/ha, 21 DAA; may represent multiple trials; read-out: Visual Injury (%) SCPJU
Experimental: as §1, §2, §3, §4

| SMILES | pest or weed control at 35 g/ha [1] [%] | melting point [°C] | pest or weed control at 8.75 g/ha [2] [%] | pest or weed control at 8.75 g/ha [3] [%] | pest or weed control at 17.5 g/ha [1] [%] | pest or weed control at 17.5 g/ha [4] [%] |
| --- | --- | --- | --- | --- | --- | --- |
| COc1c(Cl)ccc(-c2cc(N)c(Cl)c(C(=O)OCCc3ccccc3)n2)c1F [Compound 37] | 98 | – | – | – | – | – |
| COc1c(Cl)ccc(-c2nc(C(=O)OCCc3ccccc3)c(Cl)c(N)c2F)c1F [Compound 15] | – | 84 to 85 | 100 | 90 | 30 | 70 |
| COc1c(Cl)ccc(-c2nc(C(=O)OCc3ccccc3Cl)c(Cl)c(N)c2F)c1F [Compound 9] | – | 183 to 184 | – | – | 100 | 100 |
| COc1c(Cl)ccc(-c2nc(C(=O)OCc3cccc(C)c3)c(Cl)c(N)c2F)c1F [Compound 11] | – | 150 | 99 | 97 | 97 | 99 |
| COc1c(Cl)ccc(-c2nc(C(=O)OCc3ccc(OC(F)(F)F)cc3)c(Cl)c(N)c2F)c1F [Compound 20, 4-trifluoromethoxybenzyl 4-amino-3-chloro-6-(4-chloro-2-fluoro-3-methoxyphenyl)-5-fluoropicolinate] | – | – | 100 | 100 | 50 | 0 |
| COc1c(Cl)ccc(-c2cc(N)c(Cl)c(C(=O)OC(C)c3ccccc3)n2)c1F (stereo not drawn) [Compound 19] | 90 | 110 to 113 | – | – | – | – |
| COc1c(Cl)ccc(-c2cc(N)c(Cl)c(C(=O)OCc3ccc(Cl)cc3)n2)c1F [Compound 18] | 100 | 100 to 108 | – | – | – | – |
| COc1ccc(COC(=O)c2nc(-c3ccc(Cl)c(OC)c3F)c(F)c(N)c2Cl)cc1 [Compound 5] | – | 183 to 184 | – | – | – | – |
| COc1c(Cl)ccc(-c2nc(C(=O)OCc3cccc(Cl)c3)c(Cl)c(N)c2F)c1F [Compound 12] | – | 147 to 148 | – | – | 100 | 100 |
| COc1c(Cl)ccc(-c2nc(C(=O)OC(C)c3ccccc3)c(Cl)c(N)c2F)c1F (stereo not drawn) [Compound 14] | – | – | 95 | 50 | 10 | 70 |
